Assay results reported in US20240208992A1, “MACROCYCLES AS CFTR MODULATORS” (Idorsia Pharmaceuticals Ltd, priority 2021, published 2024).

Biological target: human F508del-CFTR (Homo sapiens, UniProt P13569, DEL508-508)
Assay: F508del-CFTR cell surface expression (corrector activity), DiscoveRx ß-galactosidase complementation chemiluminescence assay in recombinant U2OS cell line;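 further: U2OS cells co-expressing ProLink-tagged F508del-CFTR and a membrane-anchored enzyme acceptor, where more surface CFTR restores β-galactosidase activity measured by chemiluminescence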
Details: for EC50: EC50, F508del-CFTR cell surface expression; for Emax: U2OS
[1] = U2OS cells, 16h compound incubation, geomean values
[2] = in relation to Emax of corrector lumacaftor (=100%), arithmetic mean values
[3] = U2OS cells, 16h compound incubation, geomean of several measurements
[4] = in relation to the Emax of the corrector lumacaftor (=100%), U2OS cells, 16h compound incubation, arithmetic mean
[5] = U2OS cell line, 16h compound incubation, geomean values
[6] = in relation to the Emax of the corrector lumacaftor (=100%), U2OS cell line, 16h compound incubation, arithmetic mean values

Chain of human F508del-CFTR (P13569 with tags, fused parts or gaps DEL508-508): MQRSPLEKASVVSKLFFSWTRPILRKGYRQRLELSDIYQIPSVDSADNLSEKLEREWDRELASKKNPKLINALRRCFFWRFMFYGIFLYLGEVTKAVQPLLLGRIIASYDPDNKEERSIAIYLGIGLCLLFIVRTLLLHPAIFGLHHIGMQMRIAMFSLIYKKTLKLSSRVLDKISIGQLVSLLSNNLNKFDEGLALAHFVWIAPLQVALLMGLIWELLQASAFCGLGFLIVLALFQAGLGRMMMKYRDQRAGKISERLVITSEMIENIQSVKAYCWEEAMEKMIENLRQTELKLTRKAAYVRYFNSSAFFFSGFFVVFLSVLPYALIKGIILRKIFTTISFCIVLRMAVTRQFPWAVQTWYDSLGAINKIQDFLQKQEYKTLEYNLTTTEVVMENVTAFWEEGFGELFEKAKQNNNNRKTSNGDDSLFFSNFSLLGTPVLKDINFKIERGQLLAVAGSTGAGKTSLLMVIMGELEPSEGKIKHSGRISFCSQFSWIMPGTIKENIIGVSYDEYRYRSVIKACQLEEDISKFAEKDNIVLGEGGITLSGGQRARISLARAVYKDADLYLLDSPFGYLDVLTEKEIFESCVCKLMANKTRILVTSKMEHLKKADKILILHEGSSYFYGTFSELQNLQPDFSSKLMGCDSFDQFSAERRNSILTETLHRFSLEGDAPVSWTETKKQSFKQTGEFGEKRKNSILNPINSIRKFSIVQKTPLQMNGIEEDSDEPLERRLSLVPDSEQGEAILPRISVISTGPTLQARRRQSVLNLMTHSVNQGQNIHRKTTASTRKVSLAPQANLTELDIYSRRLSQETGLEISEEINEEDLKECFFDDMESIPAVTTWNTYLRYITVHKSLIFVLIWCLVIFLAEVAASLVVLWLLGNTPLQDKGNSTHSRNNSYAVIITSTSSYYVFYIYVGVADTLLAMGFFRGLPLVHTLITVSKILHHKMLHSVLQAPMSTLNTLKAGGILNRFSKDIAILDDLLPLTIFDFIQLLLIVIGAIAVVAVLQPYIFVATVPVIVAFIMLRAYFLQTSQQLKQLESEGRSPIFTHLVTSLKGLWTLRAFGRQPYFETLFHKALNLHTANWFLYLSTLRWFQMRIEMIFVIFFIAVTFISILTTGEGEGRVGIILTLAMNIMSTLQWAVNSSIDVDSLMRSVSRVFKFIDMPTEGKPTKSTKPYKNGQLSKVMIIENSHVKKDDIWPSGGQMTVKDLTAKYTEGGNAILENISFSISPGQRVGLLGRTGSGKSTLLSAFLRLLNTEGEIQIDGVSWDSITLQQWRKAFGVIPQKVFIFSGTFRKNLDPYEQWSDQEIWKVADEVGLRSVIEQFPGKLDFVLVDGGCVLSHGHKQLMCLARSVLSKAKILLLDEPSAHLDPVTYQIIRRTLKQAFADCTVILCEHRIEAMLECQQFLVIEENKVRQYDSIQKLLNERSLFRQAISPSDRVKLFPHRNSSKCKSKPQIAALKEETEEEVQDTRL

SMILES | EC50 [1] [nM] | Emax [2] [%] | EC50 [3] [nM] | Emax [4] [%] | also measured
COc1cccc(CCNC(=O)[C@@H]2CC(=O)N(C)[C@@H](CC(C)C)C(=O)N3CCN(C4CC4)C[C@@H]3C(=O)N[C@H](Cc3ccccc3)COc3ccc4ncn(C)c4c3C(=O)N2)c1 [Example 348, (8S,12S,18aR,21R)-21-benzyl-17-cyclopropyl-12-isobutyl-N-(3-methoxyphenethyl)-5,11-dimethyl-6,10,13,19-tetraoxo-6,7,8,9,10,11,12,13,16,17,18,18a,19,20,21,22-hexadecahydro-5H,15H-imidazo[4′,5′:5,6]benzo[1,2-p]pyrazino[2,1-f][1]oxa[4,7,10,14]tetraazacycloheptadecine-8-carboxamide] |  |  |  |  | EC50 [5]: 340 nM; Emax [6]: 155%
COc1cccc(CCNC(=O)[C@@H]2CC(=O)N(C)[C@@H](CC(C)C)C(=O)N(CCC3CCCCC3)CC(=O)N[C@H](Cc3ccccc3)COc3ccc4ccccc4c3C(=O)N2)c1 [Example 268, (3S,7S,13R)-13-benzyl-9-(2-cyclohexylethyl)-7-isobutyl-N-(3-methoxyphenethyl)-6-methyl-1,5,8,11-tetraoxo-1,2,3,4,5,6,7,8,9,10,11,12,13,14-tetradecahydronaphtho[1,2-p][1]oxa[4,7,10,14]tetraazacycloheptadecine-3-carboxamide] |  |  |  |  | EC50 [5]: 100 nM; Emax [6]: 273%
COc1nccc2c1C(=O)N[C@H](C(=O)NCCc1noc(C3CC3)n1)CC(=O)N(C)[C@@H](CC(C)C)C(=O)N(C)[C@H](CC1CCC(F)(F)CC1)C(=O)N[C@H](Cc1ccccc1)CO2 [Example 558, (3R,6R,9S,13S)-3-benzyl-N-(2-(5-cyclopropyl-1,2,4-oxadiazol-3-yl)ethyl)-6-((4,4-difluorocyclohexyl)methyl)-9-isobutyl-16-methoxy-7,10-dimethyl-5,8,11,15-tetraoxo-2,3,4,5,6,7,8,9,10,11,12,13,14,15-tetradecahydropyrido[3,4-p][1]oxa[4,7,10,14]tetraazacycloheptadecine-13-carboxamide] | 167 | 355 |  |  | 
CC[C@@H]1C(=O)N[C@H](Cc2ccccc2)COc2ccc3ncc(F)cc3c2C(=O)N[C@H](C(=O)NCCc2noc(C3CC3)n2)CC(=O)N(C)[C@@H](CC(C)C)C(=O)N1C [Example 803, (3S,7S,10R,13R)-13-benzyl-N-(2-(5-cyclopropyl-1,2,4-oxadiazol-3-yl)ethyl)-10-ethyl-20-fluoro-7-isobutyl-6,9-dimethyl-1,5,8,11-tetraoxo-1,2,3,4,5,6,7,8,9,10,11,12,13,14-tetradecahydro-[1]oxa[4,7,10,14]tetraazacycloheptadecino[16,17-f]quinoline-3-carboxamide] |  |  | 248 | 355 | 
CN1C(=O)C[C@@H](C(=O)NCCc2ccc3c(c2)OCO3)NC(=O)c2c(ccc3ccccc23)OC[C@@H](Cc2ccccc2)NC(=O)CN(CCC2CCCCC2)C(=O)[C@@H]1CC1CCCCC1 (racemic) [Example 291, (3RS,7S,13R)-N-(2-(benzo[d][1,3]dioxol-5-yl)ethyl)-13-benzyl-9-(2-cyclohexylethyl)-7-(cyclohexylmethyl)-6-methyl-1,5,8,11-tetraoxo-1,2,3,4,5,6,7,8,9,10,11,12,13,14-tetradecahydronaphtho[1,2-p][1]oxa[4,7,10,14]tetraazacycloheptadecine-3-carboxamide] |  |  |  |  | EC50 [5]: 109 nM; Emax [6]: 210%
COc1cccc(CCNC(=O)[C@@H]2CC(=O)N(C)[C@@H](CC(C)C)C(=O)N3CCN(c4ccc(F)cn4)C[C@@H]3C(=O)N[C@H](Cc3ccccc3)COc3cnc4ccccc4c3C(=O)N2)c1 [Example 853, (9S,13S,19aR,22R)-22-benzyl-18-(5-fluoropyridin-2-yl)-13-isobutyl-N-(3-methoxyphenethyl)-12-methyl-7,11,14,20-tetraoxo-7,8,9,10,11,12,13,14,17,18,19,19a,20,21,22,23-hexadecahydro-16H-pyrazino[2′,1′:6,7][1]oxa[4,7,10,14]tetraazacycloheptadecino[17,16-c]quinoline-9-carboxamide] |  |  | 92 | 322 | 
COc1cccc(CCNC(=O)[C@@H]2CC(=O)N(C)[C@@H](CC(C)C)C(=O)N3CCCC[C@@H]3C(=O)N[C@H](Cc3ccccc3)COc3cc(OC)cc(OC)c3C(=O)N2)c1 [Example 602, (7S,11S,20R,22aR)-20-benzyl-7-isobutyl-14,16-dimethoxy-N-(3-methoxyphenethyl)-8-methyl-6,9,13,22-tetraoxo-1,3,4,6,7,8,9,10,11,12,13,19,20,21,22,22a-hexadecahydro-2H-benzo[p]pyrido[2,1-f][1]oxa[4,7,10,14]tetraazacycloheptadecine-11-carboxamide] | 286 | 299 |  |  | 

Continued, in another order:

EC50 [1] [nM] | Emax [2] [%] | EC50 [3] [nM] | Emax [4] [%] | SMILES | also measured
844 | 159 |  |  | Cc1cc(CCNC(=O)[C@@H]2CC(=O)N(C)[C@@H](CC3CCCC3)C(=O)N3CCCC[C@H]3C(=O)N[C@H](Cc3ccccc3)COc3ccc4nc(C)oc4c3C(=O)N2)on1 [Example 437, (8S,12S,18aS,21R)-21-benzyl-12-(cyclopentylmethyl)-4,11-dimethyl-N-(2-(3-methylisoxazol-5-yl)ethyl)-6,10,13,19-tetraoxo-6,7,8,9,10,11,12,13,16,17,18,18a,19,20,21,22-hexadecahydro-15H-oxazolo[4′,5′:5,6]benzo[1,2-p]pyrido[2,1-f][1]oxa[4,7,10,14]tetraazacycloheptadecine-8-carboxamide] | 
 |  | 115 | 360 | CC(C)C[C@H]1C(=O)N(C)[C@H](Cc2nc(-c3ccc(F)cn3)no2)C(=O)N[C@H](Cc2ccccc2)COc2ccc3ncc(F)cc3c2C(=O)N[C@H](C(=O)NCCn2nnc(C3CC3)n2)CC(=O)N1C [Example 804, (3S,7S,10R,13R)-13-benzyl-N-(2-(5-cyclopropyl-2H-tetrazol-2-yl)ethyl)-20-fluoro-10-((3-(5-fluoropyridin-2-yl)-1,2,4-oxadiazol-5-yl)methyl)-7-isobutyl-6,9-dimethyl-1,5,8,11-tetraoxo-1,2,3,4,5,6,7,8,9,10,11,12,13,14-tetradecahydro-[1]oxa[4,7,10,14]tetraazacycloheptadecino[16,17-f]quinoline-3-carboxamide] | 
245 | 390 |  |  | CC(C)C[C@H]1C(=O)N(C)C2(CCC2)C(=O)N[C@H](Cc2ccccc2)COc2cnc3ccc(F)cc3c2C(=O)N[C@H](C(=O)NCCc2cc(C3CC3)no2)CC(=O)N1C [Example 689, (3'S,7'S,13′R)-13′-Benzyl-N-(2-(3-cyclopropylisoxazol-5-yl)ethyl)-20′-fluoro-7′-isobutyl-6′,9′-dimethyl-1′,5′,8′,11′-tetraoxo-2′,3′,4′,5′,6′,7′,8′,9′,11′,12′,13′,14′-dodecahydro-1′H-spiro[cyclobutane-1,10′-[1]oxa[4,7,10,14]tetraazacycloheptadecino[17,16-c]quinoline]-3′-carboxamide] | 
 |  | 267 | 447 | COc1noc(CCNC(=O)[C@@H]2CC(=O)N(C)[C@@H](CC(C)C)C(=O)N(C)C3(CC3)C(=O)N[C@H](Cc3ccccc3)COc3ccc4ncc(F)cc4c3C(=O)N2)c1F [Example 963, (3′S,7′S,13′R)-13′-benzyl-20′-fluoro-N-(2-(4-fluoro-3-methoxyisoxazol-5-yl)ethyl)-7′-isobutyl-6′,9′-dimethyl-1′,5′,8′,11′-tetraoxo-2′,3′,4′,5′,6′,7′,8′,9′,11′,12′,13′,14′-dodecahydro-1′H-spiro[cyclopropane-1,10′-[1]oxa[4,7,10,14]tetraazacycloheptadecino[16,17-f]quinoline]-3′-carboxamide] | 
 |  | 381 | 394 | Cc1cc2c3c(ccc2cn1)OC[C@@H](Cc1ccccc1)NC(=O)C1(CC(F)(F)C1)N(C)C(=O)[C@H](CC(C)C)N(C)C(=O)C[C@@H](C(=O)NCCn1nnc(C2CC2)n1)NC3=O [Example 955, (3′S,7′S,13′R)-13′-benzyl-N-(2-(5-cyclopropyl-2H-tetrazol-2-yl)ethyl)-3,3-difluoro-7′-isobutyl-6′,9′,20′-trimethyl-1′,5′,8′,11′-tetraoxo-2′,3′,4′,5′,6′,7′,8′,9′,11′,12′,13′,14′-dodecahydro-1′H-spiro[cyclobutane-1,10′-[1]oxa[4,7,10,14]tetraazacycloheptadecino[16,17-f]isoquinoline]-3′-carboxamide] | 
 |  | 22 | 440 | COc1cc(CCNC(=O)[C@@H]2CC(=O)N(C)[C@@H](CC(C)C)C(=O)N(C)[C@H](Cc3nc(C(F)(F)F)no3)C(=O)N[C@H](Cc3ccccc3)COc3ccc4cnc(C)cc4c3C(=O)N2)on1 [Example 898, (3S,7S,10R,13R)-13-benzyl-7-isobutyl-N-(2-(3-methoxyisoxazol-5-yl)ethyl)-6,9,20-trimethyl-1,5,8,11-tetraoxo-10-((3-(trifluoromethyl)-1,2,4-oxadiazol-5-yl)methyl)-1,2,3,4,5,6,7,8,9,10,11,12,13,14-tetradecahydro-[1]oxa[4,7,10,14]tetraazacycloheptadecino[16,17-f]isoquinoline-3-carboxamide] | 
502 | 305 |  |  | Cc1cc(CCNC(=O)[C@@H]2CC(=O)N(C)[C@@H](CC(C)C)C(=O)N(C[C@@H]3CCCC(C)(C)O3)CC(=O)N[C@H](Cc3ccccc3)COc3cnc4ccccc4c3C(=O)N2)on1 [Example 707, (3S,7S,13R)-13-benzyl-9-(((S)-6,6-dimethyltetrahydro-2H-pyran-2-yl)methyl)-7-isobutyl-6-methyl-N-(2-(3-methylisoxazol-5-yl)ethyl)-1,5,8,11-tetraoxo-1,2,3,4,5,6,7,8,9,10,11,12,13,14-tetradecahydro-[1]oxa[4,7,10,14]tetraazacycloheptadecino[17,16-c]quinoline-3-carboxamide] | 
